One assay deals with BIK. Put plainly: BIK protein induction under stress conditions (Western blot). It counts as cell-based, human. Particulars: human cells. The source says:
Cell lines and culture conditions. The estrogen-dependent cell line MCF-7/BUS was provided by A. M. Soto (Tufts University, Medford, Mass.) and has been described (Soto et al., Environ. Health Perspect. 103:113-22 (1995)). The human embryonic kidney 293T cells and MCF-7/BUS cells were maintained in DMEM supplemented with 10% fetal bovine serum. Estrogen starvation of MCF-7/BUS cells was done as described (Hur et al., PNAS 101:2351-6 (2004)). Briefly, the cells were washed thrice with phenol red-free DMEM and incubated in washing medium at 37° C. for 60 minutes. The MCF-7/BUS cells were then cultured in phenol red-free DMEM supplemented with 5% charcoal/dextran-stripped fetal bovine serum for 24 to 72 hours as indicated. For etoposide treatment, the cells were incubated with 50 μmol/L etoposide for 6 hours and cultured for another 24 hours before harvest.
Western blots and quantitation. The Western blots were done as described (Lee, Methods 35:373-81 (2005)). The primary antibodies were goat anti-BIK (N-19, Santa Cruz Biotechnology, Santa Cruz, Calif.), rat anti-Grp78 (76-E6, Santa Cruz Biotechnology), rat anti-GRP94, rabbit anti-calnexin, rabbit anti-calreticulin (Stressgen, Ann Arbor, Mich.), mouse anti-Flag M2, mouse anti-poly(ADP-ribose) polymerase (PARP; F-2, Santa Cruz Biotechnology, Santa Cruz, Calif.), and mouse anti-h-actin (Sigma-Aldrich, St. Louis, Mo.). Anti-h-actin was diluted at 1:2,000; anti-BIK at 1:500; and other antibodies at 1:1,000. Respective horseradish peroxidase-conjugated secondary antibodies (Santa Cruz Biotechnology, Santa Cruz, Calif.) at 1:1,000 dilution were used. The Western blots were quantitated by Fluor-S® MultiImager (Bio-Rad, Hercules, Calif.) according to the manufacturer's instructions. All quantitations were normalized against h-actin.
Background: Immunoblotting shows a protein as a band on a membrane.

The subject of the next assay is GRP78. Put plainly: Western blot of GRP78 in SK-N-SH cells with H129 antibody. The class given is cell-based, human. Particulars: 0.5 μM thapsigargin 16 hours. The procedure: FIGS. 11A, 11B and 11C show specific detection of GRP78 by H129 antibody. FIG. 11A is a Western blot assay. The human neuroblastoma SK-N-SH cells were either grown under normal conditions (−) or treated with 0.5 μM thapsigargin for 16 hours. Fifty μg of total cell lysate prepared from these cells were subjected to Western blot analysis, using the […] (1:1000 dilution). […] In FIG. 11B, Chinese hamster ovary (CHO) cells expressing basal level of GRP78 and its derivative C.1 cells overexpressing GRP78 were embedded in paraffin after fixation in formalin. The sections prepared from these blocks were stained with the immunohistochemical technique using the H129 antibody (1:100 dilution). GRP78 level, as depicted by brown staining, was elevated in C.1 cells as compared to CHO cells (600×). In FIG. 11C, paraffin slides from breast cancer patients were stained with the H129 antibody with the immunohistochemical technique. Examples of plasma cell staining from two different patients are shown.

As to `C/C=C(/C)C(=O)O[C@H]1C(C)=C2[C@H]([C@@H]1OC(=O)CCCCCCC)[C@@](C)(OC(C)=O)C[C@H](OC(=O)CCC)[C@@]1(O)[C@H]2OC(=O)[C@@]1(C)O` [thapsigargin], the “induction of BIK by ER stress inducers” value with BIK is “do not induce”. Moreover, the GRP78 protein band entry with GRP78 was “highly inducible”.
